According to patent US7473772B2, “Chimeric GB virus B (GBV-B)” (The Board of Regents of The University of Texas System, priority 2003, dated 2009):

Test system: tamarin without a prior history of GBV-B infection
Assay: Intrahepatic inoculation of synthetic GBV-B RNA into a tamarin; serum GBV-B RNA by real-time quantitative RT-PCR (TaqMan)
Assay type: in vivo, Saguinus oedipus
Conditions: about 60 μg RNA intrahepatic
Description: Plasmid DNA containing the GBV-B cDNA was purified by isopycnic centrifugation on a CsCl gradient and isolated by ethanol precipitation. The plasmid DNA was linearized at the 3′ terminus of the cDNA insert by digestion with Xho I. Two μg of the linearized DNA was used as template in an in vitro transcription reaction using the Ambion T7 MEGAscript Kit according to the manufacturer's instructions. The integrity of the resultant synthetic RNA product was confirmed by nondenaturing agarose gel electrophoresis.
Approximately 60 μg of RNA transcribed from the GBV-B cDNA clone was diluted in phosphate buffered saline and injected under direct visualization at laparotomy into the liver of a healthy tamarin without a prior history of GBV-B infection (Saguinus oedipus). Serum samples were collected from the animal weekly beginning at 2 weeks post-inoculation and tested for the presence of GBV-B RNA by real-time quantitative RT-PCR (TaqMan® assay).

## GBV-B cDNA clone: synthetic RNA transcribed from the full-length 9.4 kb GBV-B cDNA clone containing the novel 3′ terminal sequence
Week 2 postinoculation
  GBV-B RNA in serum: 8.3 × 10^3 Genome equivalents/ml
Week 3 postinoculation
  GBV-B RNA in serum: 6.6 × 10^5 Genome equivalents/ml
Week 4 postinoculation
  GBV-B RNA in serum: 4.6 × 10^8 Genome equivalents/ml
